Source: patent US8053453B2, “Pyrazolone compounds and thrombopoietin receptor activator” (Nissan Chemical Industries, Ltd., priority 2002, dated 2011)
Read-outs that look alike come from different tables or passages of the source.

Molecular target: T1, human TPO receptor (Homo sapiens, UniProt P40238)
T1 construct: expressed in transfected cells
T1 sequence (P40238 26-635): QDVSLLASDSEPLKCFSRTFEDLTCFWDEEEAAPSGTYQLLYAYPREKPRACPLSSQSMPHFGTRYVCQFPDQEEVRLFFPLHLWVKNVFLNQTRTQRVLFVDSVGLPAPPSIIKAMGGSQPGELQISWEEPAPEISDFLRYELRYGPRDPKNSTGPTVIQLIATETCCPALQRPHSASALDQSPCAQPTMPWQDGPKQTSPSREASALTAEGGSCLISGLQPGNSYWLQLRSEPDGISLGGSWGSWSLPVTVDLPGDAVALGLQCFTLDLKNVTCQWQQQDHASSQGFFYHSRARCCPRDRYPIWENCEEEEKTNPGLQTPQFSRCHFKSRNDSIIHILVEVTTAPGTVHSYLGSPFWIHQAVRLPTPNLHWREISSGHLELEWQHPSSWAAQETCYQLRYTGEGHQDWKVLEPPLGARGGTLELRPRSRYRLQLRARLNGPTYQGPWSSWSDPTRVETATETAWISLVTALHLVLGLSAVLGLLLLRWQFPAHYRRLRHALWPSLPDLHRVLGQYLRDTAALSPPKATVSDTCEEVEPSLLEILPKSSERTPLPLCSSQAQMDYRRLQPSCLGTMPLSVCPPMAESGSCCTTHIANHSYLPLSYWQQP
Assay: Proliferation of TPO-dependent cell line UT7/EPO-mpl, MTT method (Assay Examples 1, 3, 4)
Format: cell-based
Conditions: UT7/EPO-mpl cells; for EC50: concentration giving 50% of the maximum cell growth observed with the same compound; for Efficacy (%) (maximal growth rate) / Emax: value in the presence of 10 ng/ml TPO taken as 100% standard, method of Assay Example 1; for Emax: read-out: Efficacy (%) (maximal growth rate)
Procedure: The reactivity of Synthetic Example 56, the compound of the present invention, with thrombopoietin (TPO) receptor was assayed using a human leukemic cell line, UT7/EPO-mpl.
UT7/EPO-mpl is a stable transformed cell line obtained by introducing into human leukemic cell line UT7/EPO a vector that induces expression of human TPO receptor (c-mp1) under control of a cytomegaloviral promoter by the method of Takatoku et al. (J. Biol. Chem., 272:7259-7263 (1997)). […] These two cell lines were subcultured in Iscove's modified Dulbecco's medium (IMDM; GIBCO) containing 10% fetal bovine serum (FBS; TRACE SCIENTIFIC) using a CO2 incubator (5% CO2, 37° C.).
The subcultured cells described above were washed twice with phosphate buffered saline (PBS) and suspended in IMDM containing 10% FBS at a cell density of 6×10^4 cells/ml. The cell suspension was transferred to a 96-well tissue culture plate (CORNING) in 100-μl aliquots. Then either TPO (PeproTech EC) or Synthetic Example 56 dissolved in dimethylsulfoxide (DMSO) was diluted 83-fold with IMDM containing 10% FBS and added to the aforementioned cell suspension in 20-μl aliquots. The suspension was incubated in a CO2 incubator (5% CO2, 37° C.) for 4 days. Cell proliferation was assayed according to the method of Mosmann et al. (J. Immunol. Methods, 65:55-63 (1983)). A 10-μl aliquot of 5 mg/ml MTT reagent (SIGMA) was added to each well of the tissue culture plate and the plate was incubated at 37° C. for 4 h. The formazan pigment generated was dissolved by adding 150 μl per well of 0.1 M HCl/isopropanol solution and the absorbance of the resulting pigment solution was measured at 550 nm with a 96-well microplate reader (BIO-RAD, M450).
The following Synthetic Examples were tested according to the method of Assay Example 1 to determine the maximal growth rate (efficacy), expressed by taking the value with human leukemic cell line UT7/EPO-mpl observed in the presence of 10 ng/ml TPO as 100% standard, and the concentration of each compound that yields a growth rate corresponding to 50% of the maximum cell growth observed with the same compound (EC50).
Synthetic Example 56, the compound of the present invention, and four compounds (Reference Synthetic Examples 1 to 4) described in a publication of international patent application (Publication No. WO01/34585, applied by SmithKline Beecham Corp.) were tested according to the method of Assay Example 1.

[1] = read-out: EC50 (ng/ml) (converted)

Row | EC50 [ng/mL] | Efficacy (%) (maximal growth rate) | EC50 [1] [nM] | Emax [%] | Compound
1 | 1.1 | 96 | – | – | CC1=NN(c2ccc(C)c(C)c2)C(=O)C1=C(C)NNC(=O)c1ccc(O)cc1O [compound 56]
2 | 5.9 | 97 | – | – | CC1=NN(c2ccc(C)c(C)c2)C(=O)C1=C(C)NNC(=O)c1ccc(O)c(O)c1 [compound 57]
3 | 32 | 110 | – | – | CC1=NN(c2ccc(C)c(C)c2)C(=O)C1=C(C)NNC(=O)c1ccccc1[N+](=O)[O-] [compound 58]
4 | – | – | 58.9 | 82 | CC1=NN(c2ccc(C)c(C)c2)C(=O)C1=C(C)NNC(=O)c1cccc([N+](=O)[O-])c1 [compound 59]
5 | 100 | 62 | – | – | CC1=NN(c2ccc(C)c(C)c2)C(=O)C1=C(C)NNC(=O)c1ccc([N+](=O)[O-])cc1 [compound 60]
6 | 29 | 91 | – | – | CC1=NN(c2ccc(Cl)c(Cl)c2)C(=O)C1=C(C)NNC(=O)c1ccccc1O [compound 61]
7 | 6.4 | 57 | – | – | CC1=NN(c2ccc(Cl)c(Cl)c2)C(=O)C1=C(C)NNC(=O)c1ccc(O)cc1 [compound 62]
8 | 190 | 21 | – | – | CC1=NN(c2ccc(Cl)c(Cl)c2)C(=O)C1=C(C)NNC(=O)c1cc2ccccc2cc1O [compound 63]
9 | 7.7 | 74 | – | – | CC1=NN(c2ccc(Cl)c(Cl)c2)C(=O)C1=C(C)NNC(=O)c1ccc(O)cc1O [compound 64]
10 | 8.9 | 70 | – | – | CC1=NN(c2ccc(Cl)c(Cl)c2)C(=O)C1=C(C)NNC(=O)c1ccc(O)c(O)c1 [compound 65]
11 | 33 | 133 | – | – | CC1=NN(c2ccc(Cl)c(Cl)c2)C(=O)C1=C(C)NNC(=O)c1ccccc1[N+](=O)[O-] [compound 66]
12 | 33 | 80 | – | – | CC1=NN(c2ccc(Cl)c(Cl)c2)C(=O)C1=C(C)NNC(=O)c1cccc([N+](=O)[O-])c1 [compound 67]
13 | 210 | 26 | – | – | CC1=NN(c2ccc(Cl)c(Cl)c2)C(=O)C1=C(C)NNC(=O)c1ccc([N+](=O)[O-])cc1 [compound 68]
14 | 5.7 | 89 | – | – | CC1=NN(c2ccc(C(C)(C)C)cc2)C(=O)C1=C(C)NNC(=O)c1ccc(N)cc1 [compound 69]
15 | 23 | 87 | – | – | CC1=NN(c2ccc(C(C)(C)C)cc2)C(=O)C1=C(C)NNC(=O)c1cccc(N)c1 [compound 70]
16 | 69 | 89 | – | – | CC1=NN(c2ccc(C(C)(C)C)cc2)C(=O)C1=C(C)NNC(=O)c1ccc(C(F)(F)F)cc1 [compound 71]
17 | 75 | 88 | – | – | CC1=NN(c2ccc(C(C)(C)C)cc2)C(=O)C1=C(C)NNC(=O)c1ccc(C(C)(C)C)cc1 [compound 72]
18 | 10 | 84 | – | – | CC1=NN(c2ccc(C)c(C)c2)C(=O)C1=C(C)NNC(=O)c1ccc(N)cc1 [compound 73]
19 | 25 | 77 | – | – | CC1=NN(c2ccc(C)c(C)c2)C(=O)C1=C(C)NNC(=O)c1cccc(N)c1 [compound 74]

Row | EC50 [ng/mL] | Efficacy (%) (maximal growth rate) | EC50 [1] [nM] | Emax [%] | Compound
20 | 63 | 89 | – | – | CC1=NN(c2ccc(C)c(C)c2)C(=O)C1=C(C)NNC(=O)c1ccc(C(F)(F)F)cc1 [compound 75]
21 | 46 | 79 | – | – | CC1=NN(c2ccc(C)c(C)c2)C(=O)C1=C(C)NNC(=O)c1ccc(C(C)(C)C)cc1 [compound 76]
22 | 5.1 | 78 | – | – | CC1=NN(c2ccc(Cl)c(Cl)c2)C(=O)C1=C(C)NNC(=O)c1ccc(N)cc1 [compound 77]
23 | 15 | 69 | – | – | CC1=NN(c2ccc(Cl)c(Cl)c2)C(=O)C1=C(C)NNC(=O)c1cccc(N)c1 [compound 78]
24 | 160 | 81 | – | – | CC1=NN(c2ccc(Cl)c(Cl)c2)C(=O)C1=C(C)NNC(=O)c1ccc(C(F)(F)F)cc1 [compound 79]
25 | 640 | 71 | – | – | CC1=NN(c2ccc(Cl)c(Cl)c2)C(=O)C1=C(C)NNC(=O)c1ccc(C(C)(C)C)cc1 [compound 80]
26 | 7.2 | 84 | – | – | CC1=NN(c2ccc(C(C)(C)C)cc2)C(=O)C1=C(C)NNC(=O)c1cccc(O)c1 [compound 81]
27 | 26 | 84 | – | – | CC1=NN(c2ccc(C)c(C)c2)C(=O)C1=C(C)NNC(=O)c1cccc(O)c1 [compound 82]
28 | – | – | 14.5 | 78 | CC1=NN(c2ccc(Cl)c(Cl)c2)C(=O)C1=C(C)NNC(=O)c1cccc(O)c1 [compound 83]
29 | 130 | 109 | – | – | CC1=NN(c2cccc([N+](=O)[O-])c2)C(=O)C1=C(C)NNC(=O)c1cccc([N+](=O)[O-])c1 [compound 84]
30 | 21 | 105 | – | – | CC1=NN(c2cccc([N+](=O)[O-])c2)C(=O)C1=C(C)NNC(=O)c1ccc(O)cc1O [compound 86]
31 | 600 | 71 | – | – | CC1=NN(c2ccccn2)C(=O)C1=C(C)NNC(=O)c1ccc(O)cc1O [compound 87]
32 | 130 | 70 | – | – | CC1=NN(c2cccc([N+](=O)[O-])c2)C(=O)C1=C(C)NNC(=O)c1ccc(C(C)(C)C)cc1 [compound 88]
33 | 39 | 68 | – | – | CC1=NN(c2cccc(C(F)(F)F)c2)C(=O)C1=C(C)NNC(=O)c1cccc(N)c1 [compound 89]
34 | 21 | 76 | – | – | CC1=NN(c2cccc(C(F)(F)F)c2)C(=O)C1=C(C)NNC(=O)c1ccc(N)cc1 [compound 90]
35 | 24 | 81 | – | – | CC1=NN(c2ccc(C(F)(F)F)cc2)C(=O)C1=C(C)NNC(=O)c1cccc(N)c1 [compound 91]
36 | 5.5 | 82 | – | – | CC1=NN(c2ccc(C(F)(F)F)cc2)C(=O)C1=C(C)NNC(=O)c1ccc(N)cc1 [compound 92]
37 | 4.3 | 84 | – | – | CC1=NN(c2ccc(C)c(C)c2)C(=O)C1=CNNC(=O)c1ccc(O)cc1O [compound 93]
